Measurements: ChEMBL document CHEMBL1143058, “Evaluation of a diverse set of potential P1 carboxylic acid bioisosteres in hepatitis C virus NS3 protease inhibitors” (Bioorg Med Chem, 2007)

Key:
[1] = system: Hepatitis C virus; assay: Inhibition of HCV by subgenomic HCV replication assay; type: functional, organism-based, Hepacivirus hominis
[2] = Inhibition of HCV NS3 protease in presence of pH 7.5 HEPES buffer; set-up: species or system Hepacivirus hominis
[3] = Inhibition of HCV NS3 protease in presence of pH 7.0 buffer; set-up: species or system Hepacivirus hominis
[4] = Inhibition of HCV NS3 protease in presence of pH 8.0 buffer; set-up: species or system Hepacivirus hominis
[5] = Inhibition of HCV NS3 protease in presence of pH 6.0 buffer; set-up: species or system Hepacivirus hominis

Row | EC50 [1] | Ki [2] | Ki [3] | Ki [4] | Ki [5] | SMILES
1 | 2800 nM | 214 nM | – | – | – | C=C[C@@H]1C[C@]1(NC(=O)[C@@H]1C[C@@H](Oc2cc(-c3ccccc3)nc3cc(OC)ccc23)CN1C(=O)[C@@H](NC(=O)OC(C)(C)C)C(C)(C)C)c1nnn[nH]1
2 | > 10000 nM | 1100 nM | – | – | – | C=C[C@@H]1C[C@]1(NC(=O)[C@@H]1C[C@@H](Oc2cc(-c3ccccc3)nc3cc(OC)ccc23)CN1C(=O)[C@@H](NC(=O)OC(C)(C)C)C(C)(C)C)C(=O)NNCc1ccccc1
3 | > 10000 nM | 560 nM | 113 nM | 287 nM | 28 nM | C=C[C@@H]1C[C@]1(NC(=O)[C@@H]1C[C@@H](Oc2cc(-c3ccccc3)nc3cc(OC)ccc23)CN1C(=O)[C@@H](NC(=O)OC(C)(C)C)C(C)(C)C)C(=O)NNc1ccccc1
4 | > 10000 nM | 1600 nM | – | – | – | C=C[C@@H]1C[C@]1(NC(=O)[C@@H]1C[C@@H](Oc2cc(-c3ccccc3)nc3cc(OC)ccc23)CN1C(=O)[C@@H](NC(=O)OC(C)(C)C)C(C)(C)C)C(=O)NNC(=O)c1ccccc1
5 | 1600 nM | 140 nM | – | – | – | C=C[C@@H]1C[C@]1(NC(=O)[C@@H]1C[C@@H](Oc2cc(-c3ccccc3)nc3cc(OC)ccc23)CN1C(=O)[C@@H](NC(=O)OC(C)(C)C)C(C)(C)C)C(=O)NNS(=O)(=O)c1ccccc1
6 | 0.9 nM | 0.058 nM | – | – | – | C=C[C@@H]1C[C@]1(NC(=O)[C@@H]1C[C@@H](Oc2cc(-c3ccccc3)nc3cc(OC)ccc23)CN1C(=O)[C@@H](NC(=O)OC(C)(C)C)C(C)(C)C)C(=O)NS(=O)(=O)C1CC1
7 | 140 nM | 20 nM | 0.68 nM | 8.7 nM | 0.12 nM | C=C[C@@H]1C[C@]1(NC(=O)[C@@H]1C[C@@H](Oc2cc(-c3ccccc3)nc3cc(OC)ccc23)CN1C(=O)[C@@H](NC(=O)OC(C)(C)C)C(C)(C)C)C(=O)O
8 | > 10000 nM | 880 nM | – | – | – | C=C[C@@H]1C[C@]1(NC(=O)[C@@H]1C[C@@H](Oc2cc(-c3ccccc3)nc3cc(OC)ccc23)CN1C(=O)[C@@H](NC(=O)OC(C)(C)C)C(C)(C)C)C(=O)NNC(=O)Cc1ccccc1
9 | 6 nM | 0.34 nM | – | – | – | C=C[C@@H]1C[C@]1(NC(=O)[C@@H]1C[C@@H](Oc2cc(-c3ccccc3)nc3cc(OC)ccc23)CN1C(=O)[C@@H](NC(=O)OC(C)(C)C)C(C)(C)C)C(=O)NS(=O)(=O)c1ccccc1
10 | 6 nM | 0.22 nM | 0.056 nM | 0.39 nM | 0.006 nM | C=C[C@@H]1C[C@]1(NC(=O)[C@@H]1C[C@@H](Oc2cc(-c3ccccc3)nc3cc(OC)ccc23)CN1C(=O)[C@@H](NC(=O)OC(C)(C)C)C(C)(C)C)C(=O)NS(=O)(=O)c1ccc(C)cc1
11 | 1200 nM | 6 nM | 0.51 nM | 10.8 nM | 0.14 nM | C=C[C@@H]1C[C@]1(NC(=O)[C@@H]1C[C@@H](Oc2cc(-c3ccccc3)nc3cc(OC)ccc23)CN1C(=O)[C@@H](NC(=O)OC(C)(C)C)C(C)(C)C)C(=O)NC#N
12 | 3800 nM | 425 nM | – | – | – | C=C[C@@H]1C[C@]1(NC(=O)[C@@H]1C[C@@H](Oc2cc(-c3ccccc3)nc3cc(OC)ccc23)CN1C(=O)[C@@H](NC(=O)OC(C)(C)C)C(C)(C)C)C(=O)NO
13 | > 2000 nM | 1690 nM | 349 nM | 734 nM | 71 nM | C=C[C@@H]1C[C@]1(NC(=O)[C@@H]1C[C@@H](Oc2cc(-c3ccccc3)nc3cc(OC)ccc23)CN1C(=O)[C@@H](NC(=O)OC(C)(C)C)C(C)(C)C)C(=O)NCC(F)(F)F
14 | > 10000 nM | 821 nM | 294 nM | 343 nM | 7.7 nM | C=C[C@@H]1C[C@]1(NC(=O)[C@@H]1C[C@@H](Oc2cc(-c3ccccc3)nc3cc(OC)ccc23)CN1C(=O)[C@@H](NC(=O)OC(C)(C)C)C(C)(C)C)C(=O)Nc1nccs1
15 | > 10000 nM | 2200 nM | – | – | – | C=C[C@@H]1C[C@]1(NC(=O)[C@@H]1C[C@@H](Oc2cc(-c3ccccc3)nc3cc(OC)ccc23)CN1C(=O)[C@@H](NC(=O)OC(C)(C)C)C(C)(C)C)c1nnc(-c2ccccc2)o1
16 | 1800 nM | 9 nM | – | – | – | C=C[C@@H]1C[C@]1(NC(=O)[C@@H]1C[C@@H](Oc2cc(-c3ccccc3)nc3cc(OC)ccc23)CN1C(=O)[C@@H](NC(=O)OC(C)(C)C)C(C)(C)C)C(=O)N[S+]([O-])c1ccc(C)cc1 (stereo not given in full)
